Data taken from patent US20140221372A1, “METHOD OF ADMINISTRATION AND TREATMENT” (GlaxoSmithKline Intellectual Property (NO 2.) Limited, priority 2013, published 2014).
Values joined by “and” are separate entries in the source; they are usually repeats but may differ in a detail not shown here. Equal entries are not always repeated.

What was measured:
Assay type in all cases: in vivo, human
[1] = system: hepatocellular cancer (HCC) subjects; assay: Pharmacogenetic analysis: association of genetic variants with TTP and OS in Asian HCC subjects receiving foretinib; details: foretinib 30 mg QD; for Median TTP: (95% CI)
Description: Asian HCC subjects treated with the maximum tolerated dose (MTD) of 30 mg QD and provided informed consent and blood sample for PGx research (n=31 of 39 subjects treated) were selected for PGx analysis. Of the 31 subjects who provided consent, 28 subjects were evaluable for objective response rate (ORR) and 30 for time to progression (TTP) and overall survival (OS).
Venous blood was collected from each PGx consented subject into an ethylenediaminetetraacetic acid (EDTA) vacutainer for PGx analysis. DNA was extracted using the Qiagen Autopure automated DNA extraction by Covance (Indianapolis, Ind., USA) and was genotyped for 20 single nucleotide polymorphisms (SNPs) with potential functional consequence from 13 candidate genes. The list of the genetic variants including their unique identifier (rs ID) and allele frequency in Asian population is included in Table 1. Genotyping of the SNPs was done via Sanger sequencing, or using custom TaqMan® SNP genotyping assays (Applied Biosystems, Foster City, Calif., USA) internally at GlaxoSmithKline or via TaqMan® custom or Assay on Demand genotyping assays (Applied Biosystems, Foster City, Calif., USA) by Gen-Probe (Wythenshawe, Manchester, UK).
Association with ORR was evaluated using Fisher's Exact Test (FET). Association with TTP and OS was tested using time-to-event (progression) models, using the Score (log rank) test. Since one of the haplotypes CAT (a unique combination of ‘C’, ‘A’, and ‘T’ alleles of SNPs—rs2307424, rs2307418, and rs4073054, respectively) in gene NR1I3/CAR (nuclear receptor subfamily 1, group I, member 3/constitutive androstane receptor) was previously reported to be associated with worse progression-free survival in sunitinib-treated renal cell carcinoma subjects (Van der Veldt 2011), the 3 SNPs in NR1I3 (were analyzed separately and together as a haplotype for association with clinical endpoints (see Tables 1 and 2). Similarly, the 3 SNPs in ABCB1 (ATP-binding cassette, subfamily B, member 1) were also analyzed separately and together as a haplotype.
Because of the limited sample size of the study, genetic analyses were performed without adjustment for baseline demographics or potential covariates, and p-values were not adjusted for multiple testing.

[2] = system: CAF (Cytokine and Angiogenic Factor) levels; assay: Circulating pharmacodynamic markers: CAF time course, percent change from baseline (Searchlight platform)
Description: (§1) Blood was collected at baseline (Day 1) and post treatment with 30 mg/daily of foretinib on Days 8, 15, and 22. CAF (Cytokine and Angiogenic Factor) levels were determined. CAF levels were determined by using the Searchlight platform (Aushon Biosciences). Levels of circulating sMET and HGF were determined using Meso Scale Discovery Platform (Don Bottaro, National Cancer Institute [NCI]). The biomarker analysis population was predefined to include patients who met the following criteria: • Patient is in a 30 mg cohort. • Pharmacodynamic (PD)-sample data available at baseline and for at least 1 post-baseline timepoint, and • Patient received at least 75% of planned doses up to time of last PD sample. CAF percent changes from baseline were assessed for each CAF, at each time point, for available data in the biomarker population, using the Wilcoxon Signed Rank Test.

sMET = assay: Circulating sMET level, percent change from baseline (Meso Scale Discovery Platform); details: Day 8, 30 mg/daily
Description: as §1

[3] = system: hepatocellular carcinoma patients; assay: Association between baseline (Day 1) CAF levels and TTP / OS in patients on foretinib
Description: Blood was collected at baseline (Day 1) and post treatment with 30 mg/daily of foretinib on Days 8, 15, and 22. CAF (Cytokine and Angiogenic Factor) levels were determined. CAF levels were determined by using the Searchlight platform (Aushon Biosciences). Levels of circulating sMET and HGF were determined using Meso Scale Discovery Platform (Don Bottaro, National Cancer Institute [NCI]).
The biomarker analysis population was predefined to include patients who met the following criteria: • Patient is in a 30 mg cohort. • Pharmacodynamic (PD)-sample data available at baseline and for at least 1 post-baseline timepoint, and • Patient received at least 75% of planned doses up to time of last PD sample.
Association between day 1 CAF levels and TTP was assessed using univariate and multivariate (covariate adjusted) proportional hazards regression analysis. CAF data were transformed (log2) where appropriate.
Association between day 1 CAF levels and OS was assessed using univariate and multivariate (covariate adjusted) proportional hazards regression analysis. CAF data were transformed (log2) where appropriate. For statistically significant CAF's in the OS statistical models, a combined model of the significant CAF's will be explored, in which an optimal predictive combination of the CAF's (including optimal cutoffs) will be investigated. The method employed to explore the CAF's will depend upon the number of significant CAF's, and will be described in the results section.

Question: What does the source list for `COc1cc2c(Oc3ccc(NC(=O)C4(C(=O)Nc5ccc(F)cc5)CC4)cc3F)ccnc2cc1OCCCN1CCOCC1` [foretinib]?
Answer: Median TTP ([1]; ABCB1 rs1045642 TC or TT genotype): 8 months and 8.21 (2.17-NE) months; median OS ([1]; NR1I3 CAT/CAT): 5.9 months; Median TTP ([1]; NR1I3 CAT/− or −/− (1 or no copy, other haplotypes)): 6.21 (2.96-NE) months; Median TTP ([1]; NR1I3 haplotype CAT/CAT (2 copies)): 1.92 (1.51-NE*) months; median OS ([1]; NR1I3 other haplotypes): 8.5 months; Clusterin Percent Change from baseline ([2]; Day 8, 30 mg/daily): 25%; FASL Percent Change from baseline ([2]; Day 8, 30 mg/daily): 26%; GCSF Percent Change from baseline ([2]; Day 8, 30 mg/daily): 46%; IGFBP3 Percent Change from baseline ([2]; Day 8, 30 mg/daily): 19%; IL6 Percent Change from baseline ([2]; Day 8, 30 mg/daily): 58%; PLGF Percent Change from baseline ([2]; Day 8, 30 mg/daily): 105%; TRAIL Percent Change from baseline ([2]; Day 8, 30 mg/daily): 25%; TSP2 Percent Change from baseline ([2]; Day 8, 30 mg/daily): −14%; VCAM1 Percent Change from baseline ([2]; Day 8, 30 mg/daily): 28%; VEGF Percent Change from baseline ([2]; Day 8, 30 mg/daily): 61%; ANG2 Percent Change from baseline ([2]; Day 15, 30 mg/daily): −24%; FASL Percent Change from baseline ([2]; Day 15, 30 mg/daily): 20%; IGFBP3 Percent Change from baseline ([2]; Day 15, 30 mg/daily): 13%; IL6 Percent Change from baseline ([2]; Day 15, 30 mg/daily): 124%; IL8 Percent Change from baseline ([2]; Day 15, 30 mg/daily): 20%; PLGF Percent Change from baseline ([2]; Day 15, 30 mg/daily): 130%; SCF Percent Change from baseline ([2]; Day 15, 30 mg/daily): −14%; TRAIL Percent Change from baseline ([2]; Day 15, 30 mg/daily): 17%; TSP2 Percent Change from baseline ([2]; Day 15, 30 mg/daily): −19%; VCAM1 Percent Change from baseline ([2]; Day 15, 30 mg/daily): 43%; VEGF Percent Change from baseline ([2]; Day 15, 30 mg/daily): 83%; VEGFR2 Percent Change from baseline ([2]; Day 15, 30 mg/daily): −21%; ANG2 Percent Change from baseline ([2]; Day 22, 30 mg/daily): −17%; Clusterin Percent Change from baseline ([2]; Day 22, 30 mg/daily): 23%; FASL Percent Change from baseline ([2]; Day 22, 30 mg/daily): 44%; IGFBP3 Percent Change from baseline ([2]; Day 22, 30 mg/daily): 17%; IL6 Percent Change from baseline ([2]; Day 22, 30 mg/daily): 111%; PLGF Percent Change from baseline ([2]; Day 22, 30 mg/daily): 120%; TRAIL Percent Change from baseline ([2]; Day 22, 30 mg/daily): 24%; VCAM1 Percent Change from baseline ([2]; Day 22, 30 mg/daily): 64%; VEGF Percent Change from baseline ([2]; Day 22, 30 mg/daily): 83%; VEGFR2 Percent Change from baseline ([2]; Day 22, 30 mg/daily): −21%; sMET Percent Change from baseline (sMET): 12%; longer TTP, lower vs higher levels of IL6 ([3]; median split of baseline IL6 levels, 30 mg cohort): ~6.7 month; deaths ([3]; patients in the highest quartile of baseline IL6): 10/10; deaths ([3]; patients in the highest quartile of baseline IL8): 9/10; deaths ([3]; patients in the lowest quartiles of baseline IL6 and IL8 (all patients censored)): 0/9; TTP ([3]; patients with higher baseline levels of IL6 (median split), 30 mg cohort): 2.9 months; TTP ([3]; patients with lower baseline levels of IL6 (median split), 30 mg cohort): 9.6 months; median survival ([3]; patients with unfavorable levels of IL6 and IL8 (group 1 in FIG. 6)): 6 months
